Drawing on patent publication US10196390B2, “TYK2 inhibitors and uses thereof” (Nimbus Lakshmi, Inc., priority 2014, dated 2019), this text covers Ki for 22 compounds.

The structures appear in SMILES notation. Some results are limits rather than exact numbers.

Assay [1] concerns the target JAK2 (Homo sapiens (Human), UniProt O60674). The assay is described as follows: JAK2 activity inhibition assay (radioactive kinase assay / Caliper assay). It is filed as biochemical. The conditions noted are these: read-out: JAK2 Ki. Summed up: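 Reaction ran 25 min at 28° C after adding peptide/ATP mix (10 mM MgCl2) to compound and enzyme in HEPES pH 7.5 buffer with Brij-35, Triton and EGTA. EDTA stop, then microfluidic off-chip separation quantified phosphorylated peptide.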

Assay [2] addresses TYK2 (Homo sapiens (Human), UniProt P29597). The assay is described as follows: Tyk2 activity inhibition assay (radioactive kinase assay / Caliper assay). Type of assay: biochemical. As to the method:
Peptide substrate, [[…]], (20 μM) is prepared in reaction buffer (20 mM Hepes pH 7.5, 10 mM MgCl2, 1 mM EGTA, 0.02% Brij35, 0.02 mg/mL BSA, […], 2 mM DTT, 1% DMSO. TYK2 (Invitrogen) kinase is added, followed by compounds in DMSO. 33PATP is added to initiate the reaction in ATP at 10 μM. Kinase reaction is incubated for 120 min at room temp and reactions are spotted onto P81 ion exchange paper (Whatman #3698-915), and then washed extensively in 0.75% phosphoric acid, prior to reading the radioactivity counts. For JAK2 (Invitrogen) kinase assay the peptide substrate poly[Glu:Tyr](4:1), 0.2 mg/ml is used, in the reaction carried out the same as for TYK2.
The caliper machine employs an off chip mobility shift assay to detect phosphorylated peptide substrates from kinase assays, using microfluidics technology. The assays are carried out at ATP concentration equivalent to the ATP Km, and at 1 mM ATP. Compounds are serially diluted in DMSO then further diluted in assay buffer (25 mM HEPES, pH 7.5, 0.01% Brij-35, 0.01% Triton, 0.5 mM EGTA). 5 ul of diluted compound was added into wells first, then 10 ul of enzyme mix was added into wells, followed by 10 uL of substrate mix (peptide and ATP in 10 mM MgCl2) to start reaction. Reaction was incubated at 28° C. for 25 min and then added 25 ul stop buffer (100 mM HEPES, 0.015% Brij-35, 50 mM EDTA), followed by reading with Caliper. JAK2 at 1 nM final concentration and TYK2 at 9.75 nM are from Carna, and substrates used are ATP at 20 and 16 uM, respectively. JAK2 assay uses peptide 22 and TYK2 uses peptide 30 (Caliper), each at 3 uM.

Sequence of JAK2 (O60674 whole entry): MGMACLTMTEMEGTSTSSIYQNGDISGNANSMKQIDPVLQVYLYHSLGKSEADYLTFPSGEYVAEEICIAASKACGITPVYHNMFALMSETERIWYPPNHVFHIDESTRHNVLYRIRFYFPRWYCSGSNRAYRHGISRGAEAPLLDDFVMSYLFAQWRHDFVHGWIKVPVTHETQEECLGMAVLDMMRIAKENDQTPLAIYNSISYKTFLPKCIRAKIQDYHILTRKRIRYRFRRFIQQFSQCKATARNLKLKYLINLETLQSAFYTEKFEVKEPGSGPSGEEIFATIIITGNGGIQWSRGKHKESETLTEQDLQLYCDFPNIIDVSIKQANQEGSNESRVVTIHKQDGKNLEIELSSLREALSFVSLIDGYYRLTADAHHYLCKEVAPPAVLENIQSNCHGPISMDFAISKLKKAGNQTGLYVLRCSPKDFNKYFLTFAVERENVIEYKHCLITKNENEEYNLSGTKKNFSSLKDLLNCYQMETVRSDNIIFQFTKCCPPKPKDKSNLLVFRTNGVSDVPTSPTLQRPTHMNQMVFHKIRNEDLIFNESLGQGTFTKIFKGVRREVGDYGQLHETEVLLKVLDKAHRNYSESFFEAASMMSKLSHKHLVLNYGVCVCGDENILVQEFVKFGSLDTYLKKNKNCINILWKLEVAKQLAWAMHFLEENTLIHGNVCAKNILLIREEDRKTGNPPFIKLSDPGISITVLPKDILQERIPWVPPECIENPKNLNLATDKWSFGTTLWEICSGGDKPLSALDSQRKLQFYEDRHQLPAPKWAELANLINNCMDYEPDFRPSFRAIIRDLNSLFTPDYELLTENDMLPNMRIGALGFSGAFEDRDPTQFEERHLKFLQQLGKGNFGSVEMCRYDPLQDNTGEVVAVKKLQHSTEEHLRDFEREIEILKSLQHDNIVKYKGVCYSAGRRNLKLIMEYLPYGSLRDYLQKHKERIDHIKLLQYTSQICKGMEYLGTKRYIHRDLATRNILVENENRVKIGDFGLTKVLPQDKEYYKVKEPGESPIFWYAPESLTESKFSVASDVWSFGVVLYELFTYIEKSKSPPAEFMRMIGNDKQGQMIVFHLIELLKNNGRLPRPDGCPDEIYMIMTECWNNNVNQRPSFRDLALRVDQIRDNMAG
Sequence of TYK2 (P29597 whole entry): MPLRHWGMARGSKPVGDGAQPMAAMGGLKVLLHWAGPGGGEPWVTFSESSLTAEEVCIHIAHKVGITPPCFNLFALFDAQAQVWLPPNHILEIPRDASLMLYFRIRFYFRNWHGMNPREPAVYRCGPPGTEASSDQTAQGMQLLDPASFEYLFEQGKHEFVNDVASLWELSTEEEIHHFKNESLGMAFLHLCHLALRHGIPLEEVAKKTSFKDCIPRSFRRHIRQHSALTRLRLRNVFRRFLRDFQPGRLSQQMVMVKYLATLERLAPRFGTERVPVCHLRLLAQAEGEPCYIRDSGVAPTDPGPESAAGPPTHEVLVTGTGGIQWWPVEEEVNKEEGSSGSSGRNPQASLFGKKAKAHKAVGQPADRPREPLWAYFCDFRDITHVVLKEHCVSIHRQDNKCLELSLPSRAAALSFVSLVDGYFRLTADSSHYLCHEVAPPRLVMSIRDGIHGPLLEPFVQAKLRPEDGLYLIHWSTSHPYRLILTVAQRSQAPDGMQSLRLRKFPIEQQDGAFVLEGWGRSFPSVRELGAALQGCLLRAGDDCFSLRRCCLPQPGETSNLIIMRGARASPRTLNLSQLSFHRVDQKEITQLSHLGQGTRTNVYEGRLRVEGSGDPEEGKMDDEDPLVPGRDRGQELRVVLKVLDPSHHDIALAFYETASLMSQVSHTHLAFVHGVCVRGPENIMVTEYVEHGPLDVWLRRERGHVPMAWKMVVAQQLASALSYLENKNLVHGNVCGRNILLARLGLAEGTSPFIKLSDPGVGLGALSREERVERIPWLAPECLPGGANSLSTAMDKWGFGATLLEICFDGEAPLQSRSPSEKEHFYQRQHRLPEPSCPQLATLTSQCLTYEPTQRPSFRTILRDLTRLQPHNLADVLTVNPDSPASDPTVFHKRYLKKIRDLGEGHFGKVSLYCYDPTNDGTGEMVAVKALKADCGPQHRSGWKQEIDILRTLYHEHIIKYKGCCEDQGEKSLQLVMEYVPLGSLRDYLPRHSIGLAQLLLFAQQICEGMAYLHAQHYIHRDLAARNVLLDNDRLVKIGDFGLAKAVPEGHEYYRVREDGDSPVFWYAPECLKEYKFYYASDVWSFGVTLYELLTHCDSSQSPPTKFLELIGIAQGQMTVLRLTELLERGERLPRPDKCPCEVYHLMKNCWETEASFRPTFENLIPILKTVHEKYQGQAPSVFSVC

As to `O=C1NCc2nc(-c3c(F)cccc3F)nc(Nc3ccc(CC(=O)N4CCOC[C@H]4C(=O)O)cc3)c21` [Compound I-112, (S)-4-(2-(4-((2-(2,6-difluorophenyl)-5-oxo-6,7-dihydro-5H-pyrrolo[3,4-d]pyrimidin-4-yl)amino)phenyl)acetyl)morpholine-3-carboxylic Acid], the Ki is 100 to 1000 nM in assay [1] and < 10 nM in assay [2].
Consider `O=C1NCc2nc(-c3c(F)cccc3Cl)nc(Nc3ccc(C4CCNC4=O)cc3)c21` (centres unmarked) [Compound I-113, 2-(2-chloro-6-fluorophenyl)-4-((4-(2-oxopyrrolidin-3-yl)phenyl)-amino)-6,7-dihydro-5H-pyrrolo[3,4-d]pyrimidin-5-one], for which the results for the Ki in assay [1] and in assay [2] were 100 to 1000 nM and < 10 nM, respectively.
As for `COCCC1(c2ccc(Nc3nc(-c4c(F)cccc4F)nc4c3C(=O)NC4)cc2)CCNC1=O` (centres unmarked) [Compound I-116, 2-(2,6-difluorophenyl)-4-((4-(3-(2-methoxyethyl)-2-oxopyrrolidin-3-yl)phenyl)amino)-6,7-dihydro-5H-pyrrolo[3,4-d]pyrimidin-5-one], the Ki in assay [1] is 10 to 100 nM; in assay [2] it was < 10 nM.
The matching figures for `O=C1NCc2nc(-c3c(F)cccc3F)nc(Nc3ccc([C@H]4CCN(C5CCC5)C4=O)cc3)c21` [Compound I-118, (R)-4-((4-(1-cyclobutyl-2-oxopyrrolidin-3-yl)phenyl)amino)-2-(2,6-difluorophenyl)-6,7-dihydro-5H-pyrrolo[3,4-d]pyrimidin-5-one]: 100 to 1000 nM and < 10 nM.
Turning to `O=C1NCc2nc(-c3c(F)cccc3F)nc(Nc3ccc([C@@H]4CCN(C5CCC5)C4=O)cc3)c21` [Compound I-119, (S)-4-((4-(1-cyclobutyl-2-oxopyrrolidin-3-yl)phenyl)amino)-2-(2,6-difluorophenyl)-6,7-dihydro-5H-pyrrolo[3,4-d]pyrimidin-5-one], the Ki in assay [1] is 100 to 1000 nM; in assay [2], < 10 nM.
In the case of `CCNC(=O)C(C)(C)c1ccc(Nc2nc(-c3c(F)cccc3F)nc3c2C(=O)NC3)cc1` [Compound I-120, 2-(4-((2-(2,6-difluorophenyl)-5-oxo-6,7-dihydro-5H-pyrrolo[3,4-d]pyrimidin-4-yl)amino)phenyl)-N-ethyl-2-methylpropanamide], the Ki in assay [1] is 100 to 1000 nM; in assay [2], < 10 nM.
On the same counts, the results for `O=C1NCc2nc(-c3c(F)cccc3F)nc(Nc3ccc(C4CCN(CCN5CCOCC5)C4=O)cc3)c21` (centres unmarked) [Compound I-121, 2-(2,6-difluorophenyl)-4-((4-(1-(2-morpholinoethyl)-2-oxopyrrolidin-3-yl)phenyl)amino)-6,7-dihydro-5H-pyrrolo[3,4-d]pyrimidin-5-one] are 100 to 1000 nM and < 10 nM.
Consider `O=C1NCc2nc(-c3c(F)cccc3F)nc(Nc3ccc([C@H]4CCN(CCN5CCOCC5)C4=O)cc3)c21` [Compound I-122, (R)-2-(2,6-difluorophenyl)-4-((4-(1-(2-morpholinoethyl)-2-oxopyrrolidin-3-yl)phenyl)amino)-6,7-dihydro-5H-pyrrolo[3,4-d]pyrimidin-5-one], for which the Ki in assay [1] was 100 to 1000 nM; in assay [2], < 10 nM.
The matching figures for `O=C1NCc2nc(-c3c(F)cccc3F)nc(Nc3ccc([C@@H]4CCN(CCN5CCOCC5)C4=O)cc3)c21` [Compound I-123, (S)-2-(2,6-difluorophenyl)-4-((4-(1-(2-morpholinoethyl)-2-oxopyrrolidin-3-yl)phenyl)amino)-6,7-dihydro-5H-pyrrolo[3,4-d]pyrimidin-5-one]: 100 to 1000 nM and < 10 nM.
On the same counts, the results for `CC1(c2ccc(Nc3nc(-c4c(F)cccc4F)nc4c3C(=O)NC4)cc2)CCN(C2CCOCC2)C1=O` (centres unmarked) [Compound I-124, 2-(2,6-difluorophenyl)-4-((4-(3-methyl-2-oxo-1-(tetrahydro-2H-pyran-4-yl)pyrrolidin-3-yl)phenyl)amino)-6,7-dihydro-5H-pyrrolo[3,4-d]pyrimidin-5-one] are 10 to 100 nM and < 10 nM.
With `C[C@@]1(c2ccc(Nc3nc(-c4c(F)cccc4F)nc4c3C(=O)NC4)cc2)CCN(C2CCOCC2)C1=O` [Compound I-125, (S)-2-(2,6-difluorophenyl)-4-((4-(3-methyl-2-oxo-1-(tetrahydro-2H-pyran-4-yl)pyrrolidin-3-yl)phenyl)amino)-6,7-dihydro-5H-pyrrolo[3,4-d]pyrimidin-5-one], the figures for the inhibition constant (Ki) in assay [1] and in assay [2] were 10 to 100 nM and < 10 nM, respectively.
In the case of `C[C@]1(c2ccc(Nc3nc(-c4c(F)cccc4F)nc4c3C(=O)NC4)cc2)CCN(C2CCOCC2)C1=O` [Compound I-126, (R)-2-(2,6-difluorophenyl)-4-((4-(3-methyl-2-oxo-1-(tetrahydro-2H-pyran-4-yl)pyrrolidin-3-yl)phenyl)amino)-6,7-dihydro-5H-pyrrolo[3,4-d]pyrimidin-5-one], the figures for the Ki in assay [1] and in assay [2] were 10 to 100 nM and < 10 nM, respectively.
The matching figures for `O=C(NCCN1CCOCC1)c1ccc(Nc2nc(-c3c(F)cccc3F)nc3c2C(=O)NC3)cc1` [Compound I-127, 4-((2-(2,6-difluorophenyl)-5-oxo-6,7-dihydro-5H-pyrrolo[3,4-d]pyrimidin-4-yl)amino)-N-(2-morpholinoethyl)benzamide]: 10 to 100 nM and < 10 nM.
As to `COC(=O)[C@H]1C[C@H](Nc2nc(-c3c(F)cccc3F)nc3c2C(=O)NC3)C1` [Compound I-129, methyl (1r,3r)-3-((2-(2,6-difluorophenyl)-5-oxo-6,7-dihydro-5H-pyrrolo[3,4-d]pyrimidin-4-yl)amino)cyclobutane-1-carboxylate], the Ki in assay [1] and in assay [2] was > 1000 nM throughout.
For `O=C1NCc2nc(-c3c(F)cccc3F)nc(N[C@H]3C[C@H](C(=O)O)C3)c21` [Compound I-130, (1r,3r)-3-((2-(2,6-difluorophenyl)-5-oxo-6,7-dihydro-5H-pyrrolo[3,4-d]pyrimidin-4-yl)amino)cyclobutane-1-carboxylic Acid], the Ki in assay [1] and in assay [2] was > 1000 nM in each case.
For the compound `CCNC(=O)[C@H]1C[C@H](Nc2nc(-c3c(F)cccc3F)nc3c2C(=O)NC3)C1` [Compound I-131, (1r,3r)-3-((2-(2,6-difluorophenyl)-5-oxo-6,7-dihydro-5H-pyrrolo[3,4-d]pyrimidin-4-yl)amino)-N-ethylcyclobutane-1-carboxamide], the Ki in assay [1] and in assay [2] was > 1000 nM each time.
Consider `COC(=O)Cc1ccc(Nc2cc(-c3c(F)cccc3F)nc3c2C(=O)NC3)nc1` [Compound I-132, methyl 2-(6-((2-(2,6-difluorophenyl)-5-oxo-6,7-dihydro-5H-pyrrolo[3,4-b]pyridin-4-yl)amino)pyridin-3-yl)acetate], for which the Ki in assay [1] was 10 to 100 nM; in assay [2] it was < 10 nM.
On the same counts, the results for `O=C1NCc2nc(-c3c(F)cccc3F)cc(Nc3ccc(C4CCNC4=O)cn3)c21` (centres unmarked) [Compound I-133, 2-(2,6-difluorophenyl)-4-((5-(2-oxopyrrolidin-3-yl)pyridin-2-yl)amino)-6,7-dihydro-5H-pyrrolo[3,4-b]pyridin-5-one] are 10 to 100 nM and < 10 nM.
On the same counts, the results for `O=C1NCc2nc(-c3c(F)cccc3F)cc(Nc3ccc(OCCN4CCC4)cn3)c21` [Compound I-134, 4-((5-(2-(azetidin-1-yl)ethoxy)pyridin-2-yl)amino)-2-(2,6-difluorophenyl)-6,7-dihydro-5H-pyrrolo[3,4-b]pyridin-5-one] are 10 to 100 nM and < 10 nM.
For `O=C(NC1CCOCC1)c1ccc(Nc2cc(-c3c(F)cccc3F)nc3c2C(=O)NC3)nc1` [Compound I-139, 6-((2-(2,6-difluorophenyl)-5-oxo-6,7-dihydro-5H-pyrrolo[3,4-b]pyridin-4-yl)amino)-N-(tetrahydro-2H-pyran-4-yl)nicotinamide], the figures for the Ki in assay [1] and in assay [2] were 10 to 100 nM and < 10 nM, respectively.
The matching figures for `N[C@H]1CCCN(c2ccc(Nc3cc(-c4c(F)cccc4F)nc4c3C(=O)NC4)nc2)C1` [Compound I-143, (S)-4-((5-(3-aminopiperidin-1-yl)pyridin-2-yl)amino)-2-(2,6-difluorophenyl)-6,7-dihydro-5H-pyrrolo[3,4-b]pyridin-5-one]: 10 to 100 nM and < 10 nM.
In the case of `COc1ccc(Nc2cc(-c3c(F)cccc3Cl)nc3c2C(=O)NC3)nc1` [Compound I-145, 2-(2-chloro-6-fluorophenyl)-4-((5-methoxypyridin-2-yl)amino)-6,7-dihydro-5H-pyrrolo[3,4-b]pyridin-5-one], the Ki is 10 to 100 nM in assay [1] and < 10 nM in assay [2].

The Ki is the dissociation constant of the complex between target and ligand, obtained from inhibition or displacement.
